Counter-ions that a name gives are not always drawn. Like-named read-outs stand apart in the source and are kept apart here.
How the values were obtained:
[1] = target: T1, 5-HT2A receptor (rat jugular vein) (Rattus norvegicus, UniProt P14842); experiment: Antagonism of serotonin response in rat jugular vein (apparent antagonist dissociation constant); settings: vs serotonin, ± standard error, read-out: 5-HT2A (Jugular) -log KB (converted)
T1 construct: rat jugular vein which is mediated by 5-HT2A receptors; from tissue; host or cells: rat jugular vein
T1 sequence (P14842 whole entry): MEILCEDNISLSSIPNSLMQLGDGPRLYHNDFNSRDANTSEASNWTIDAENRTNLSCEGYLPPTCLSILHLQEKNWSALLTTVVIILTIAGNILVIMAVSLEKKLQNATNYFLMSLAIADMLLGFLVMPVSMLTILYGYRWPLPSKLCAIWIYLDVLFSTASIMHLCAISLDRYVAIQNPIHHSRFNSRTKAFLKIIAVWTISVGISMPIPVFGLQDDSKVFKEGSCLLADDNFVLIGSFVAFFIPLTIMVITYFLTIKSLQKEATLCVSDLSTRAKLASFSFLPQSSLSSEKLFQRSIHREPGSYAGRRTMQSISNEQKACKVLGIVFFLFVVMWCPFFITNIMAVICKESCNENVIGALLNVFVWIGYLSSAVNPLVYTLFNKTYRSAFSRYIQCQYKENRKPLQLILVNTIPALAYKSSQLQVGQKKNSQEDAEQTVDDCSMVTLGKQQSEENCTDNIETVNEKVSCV
Protocol: Apparent antagonist dissociation constants (KB) were determined for each concentration of antagonist according to the following equation: […]
where [B] is the concentration of the antagonist and dose ratio is the ED50 of the agonist in the presence of the antagonist divided by the control ED50. Generally, parallel shifts in the concentration-response curves occurred in the presence of antagonists. The results were expressed as the negative logarithm of the KB (i.e., -log KB). Calculations were completed using known methods.
The values in Table II are expressed as -log KB ± standard error (number of data points). The 5-HT2B value represents the negative log of the concentration of an antagonist that will produce a two fold dextral shift in the concentration response curve to serotonin in the rat stomach fundus which is mediated by 5-HT2B receptors. Likewise, the 5-HT2A value represents the negative log of the concentration of an antagonist that will produce a two fold dextral shift in the concentration response curve to serotonin in the rat jugular vein which is mediated by 5-HT2A receptors. The blank values in Table II indicate that the compound was not tested in the indicated assay.

distal colon = experiment: Functional in vitro assay: antagonism of serotonin contraction of rat distal colon longitudinal muscle; settings: vs serotonin
Excerpt: Functional In vitro Assay:
Sprague-Dawley rats (200-250g; Laboratory Supply, Indianapolis, Ind.) were sacrificed by cervical dislocation and 8 cm segment of distal colon was removed and washed in ice cold modified Kreb's solution of the following composition (millimolar): Nacl, 118.2; Kcl, 4.6; Cacl2. H2 O, 1.6; KH2 PO4, 1.2; MgSO4, 1.2; dextrose, 10.0; and NaHCO3, 24.8. The colon was mounted on a glass rod and the longitudinal muscle layer with attached myenteric plexi was removed and mounted in organ baths, containing above described Kreb's solution maintained at 37° C. and equilibrated with 95% O2 and 5% CO2. Tissues were placed under 2 g tension and allowed to stabilize for 1 hour. Isometric contractions were recorded as changes in grams of force using grass FT03 transducers and MI^2 - computerized dynograph system. Cumulative concentration-response curves for serotonin were obtained by a stepwise increase in concentration after washing out the preceding concentration for 10-15 minutes. Each agonist concentration remained in contact with the tissue for 5 minutes. Maximum response to each concentration was determined and digitized. EC50 values were taken as the concentration of agonist that produced half maximal contraction. After control responses were obtained, tissues were incubated with an appropriate concentration of antagonist for 15 minutes. Response to serotonin were then repeated in the presence of an antagonist. Concentration-response utilized only one concentration of antagonist per tissue. Apparent antagonist dissociation constants (KB) were determined for each concentration of antagonist according to the following equation:
KB =[B]/(dose ratio-1), where [B] is the concentration of the antagonist and dose ratio is the ED50 of the agonist in the presence of antagonist divided by the control ED50. The results were expressed as the negative logarithm of the KB (i.e., -log KB) (Br. J. Pharmacol. Methods 4:4165, (1980).
The functional in vitro method described supra. was used to test compounds of this invention. Values are expressed as pKi and pA2 (-log KB). The following table illustrates the results obtained when the compounds were tested using the Radioligand assay supra. (pKi) and the functional in vitro method described supra. (pA2)

[2] = target: 5-HT2B receptor (rat stomach fundus) (Rattus norvegicus, UniProt P30994);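 also: isometric contraction of isolated male Wistar rat stomach fundus strips, serotonin concentration-response curves after antagonist incubation, KB from dose ratio of agonist potency versus control curve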
Chain of 5-HT2B receptor (rat stomach fundus) (P30994 whole entry): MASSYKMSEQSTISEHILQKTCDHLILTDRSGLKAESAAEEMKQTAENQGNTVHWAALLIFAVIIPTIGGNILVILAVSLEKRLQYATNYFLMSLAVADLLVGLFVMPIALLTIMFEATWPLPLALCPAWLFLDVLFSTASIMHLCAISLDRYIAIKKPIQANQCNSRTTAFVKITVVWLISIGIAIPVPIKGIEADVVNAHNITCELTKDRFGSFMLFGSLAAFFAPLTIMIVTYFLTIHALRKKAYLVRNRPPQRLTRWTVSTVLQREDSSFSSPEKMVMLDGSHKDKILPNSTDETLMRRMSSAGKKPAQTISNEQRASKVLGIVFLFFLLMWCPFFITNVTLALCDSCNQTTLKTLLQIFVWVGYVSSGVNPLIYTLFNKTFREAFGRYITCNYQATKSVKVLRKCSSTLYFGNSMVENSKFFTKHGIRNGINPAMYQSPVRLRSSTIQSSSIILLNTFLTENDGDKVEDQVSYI

Human 5-HT2A = Human 5-HT2A (Homo sapiens, UniProt P28223); experiment: [125I]DOI radioligand binding, human 5-HT2A
Chain of Human 5-HT2A (P28223 whole entry): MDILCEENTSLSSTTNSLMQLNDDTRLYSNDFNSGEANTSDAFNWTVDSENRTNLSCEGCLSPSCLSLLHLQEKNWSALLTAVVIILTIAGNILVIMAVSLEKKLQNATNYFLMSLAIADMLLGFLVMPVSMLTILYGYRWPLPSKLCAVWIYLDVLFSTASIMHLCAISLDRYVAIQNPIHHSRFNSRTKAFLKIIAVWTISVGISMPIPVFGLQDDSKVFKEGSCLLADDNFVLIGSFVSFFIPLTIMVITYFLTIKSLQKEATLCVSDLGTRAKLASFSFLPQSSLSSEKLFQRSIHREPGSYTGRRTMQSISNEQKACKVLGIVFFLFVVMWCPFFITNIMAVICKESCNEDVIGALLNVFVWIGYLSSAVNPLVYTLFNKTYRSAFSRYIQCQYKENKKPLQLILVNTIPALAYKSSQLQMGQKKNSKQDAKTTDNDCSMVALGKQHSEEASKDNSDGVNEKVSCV

Human 5-HT2B = target: T2, Human 5-HT2B (Homo sapiens, UniProt P41595); experiment: [3H]Serotonin radioligand binding, human 5-HT2B; settings: Cell assays use Human Cells; read-out: Ki, 5HT2B Cells;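 also: competition of tritiated serotonin binding to cell membranes, bound radioactivity on filters counted by liquid scintillation, IC50 from logistic fits converted to Ki with the Cheng-Prusoff equation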
T2 construct: expressed in transfected cells
T2 sequence (P41595 whole entry): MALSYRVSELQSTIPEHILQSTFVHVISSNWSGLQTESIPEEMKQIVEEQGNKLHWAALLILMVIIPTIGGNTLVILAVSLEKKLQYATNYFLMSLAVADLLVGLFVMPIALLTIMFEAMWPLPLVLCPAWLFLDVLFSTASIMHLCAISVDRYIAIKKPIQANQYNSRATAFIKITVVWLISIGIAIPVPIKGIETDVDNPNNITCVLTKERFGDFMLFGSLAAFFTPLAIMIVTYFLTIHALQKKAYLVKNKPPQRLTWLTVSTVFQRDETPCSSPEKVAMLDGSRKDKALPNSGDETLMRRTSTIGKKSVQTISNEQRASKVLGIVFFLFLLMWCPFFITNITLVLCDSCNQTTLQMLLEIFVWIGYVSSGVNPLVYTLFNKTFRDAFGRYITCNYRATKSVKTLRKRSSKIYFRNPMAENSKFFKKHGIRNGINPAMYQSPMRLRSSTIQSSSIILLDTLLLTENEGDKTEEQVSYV

5HT2C = target: T3, 5HT2C (Homo sapiens, UniProt P28335); experiment: Human cell assay, 5HT2C cells; format: binding; settings: Cell assays use Human Cells
T3 construct: expressed in transfected cells
T3 sequence (P28335 33-458): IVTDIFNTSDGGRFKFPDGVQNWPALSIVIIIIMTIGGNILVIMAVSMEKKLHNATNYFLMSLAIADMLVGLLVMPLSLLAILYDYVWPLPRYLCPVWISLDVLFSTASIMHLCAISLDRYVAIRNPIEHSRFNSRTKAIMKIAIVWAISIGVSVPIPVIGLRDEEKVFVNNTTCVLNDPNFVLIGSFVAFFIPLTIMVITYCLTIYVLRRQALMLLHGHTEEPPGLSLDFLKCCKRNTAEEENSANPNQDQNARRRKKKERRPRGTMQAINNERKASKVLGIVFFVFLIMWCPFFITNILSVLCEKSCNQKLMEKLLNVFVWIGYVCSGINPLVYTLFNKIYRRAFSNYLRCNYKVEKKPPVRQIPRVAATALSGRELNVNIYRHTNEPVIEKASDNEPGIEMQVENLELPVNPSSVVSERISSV
Protocol: Compounds of this invention were tested using substantially the procedure describe in the Radioligand assay supra. and are summarized in Table I infra. The values in Table I are expressed as Ki values calculated as described supra. The blank values in Table I indicate that the compound was not tested in the corresponding assay.

rat 5-HT2B receptor = rat 5-HT2B receptor (Rattus norvegicus, UniProt P30994); experiment: biochemical; format: binding; settings: Radioligand assay, Table III;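 also: displacement of [3H]5-HT from membranes of suspension cells carrying cloned rat 5-HT2B receptor, incubated 15 min at 37 °C or 2 h at 0 °C, filter-bound radioactivity counted by scintillation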
Chain of rat 5-HT2B receptor (P30994 whole entry): as the sequence (P30994 whole entry) above

colon = experiment: In vivo inhibition of serotonin-induced colonic motility in anesthetized rats; settings: Rattus norvegicus, iv; anesthetized Sprague-Dawley rats
Protocol: Sprague-Dawley Rats (250-300 g) were fasted overnight. The rats were anesthetized with urethane ([…]) delivered intraperitoneally. The abdominal cavity was opened and strain guage transducers were sewn on the antimesenteric border of the colon. The transducers were oriented to record circular muscle contractions. The animal body temperature was maintained by a heating pad. An intravenous catheter was inserted into the jugular vein for drug administration. The carotid blood pressure was also monitored. Output of the strain guage transducers was graphed on a Beckman Dynograph. Baseline motility was monitored for 30 minutes. At the end of the 30 minute period, a vehicle control dose was administered and motility was recorded for an additional 15 minutes. A serotonin dose response was developed. Successively higher doses of serotonin were administered at 15 minute intervals. An ED50 dose was calculated, which was the dose producing half maximal contraction. In antagonist experiments, historical ED50 dose was administered to validate the experimental set up. Next, a dose of antagonist was given. The motility was monitored for 15 minutes. […] Motility was evaluated by measuring the number of contractions and multiplying them by the amplitude of contractions over a set time period to provide a Motility Index. The percent inhibition was calculated from the vehicle (no antagonist) treated group. […]

[3] = rat stomach fundus, vs serotonin, ± standard error, read-out: 5-HT2B (Fundus) -log KB (converted)

| Structure (SMILES) | Kb [1] | pA2 (-log KB) (distal colon) | Kb [2, 3] | other results |
| --- | --- | --- | --- | --- |
| CCc1ccc2[nH]c3c(c2c1)CCNC3Cc1ccc(OC)c(OC)c1 (centres unmarked) [Example 17, 6-ethyl-1,2,3,4-tetrahydro-1-[(3,4-dimethoxyphenyl)methyl]-9H-pyrido[3,4b]indole] | 21.9 nM | 6.2 | 0.347 nM |  |
| Cc1ccc2[nH]c3c(c2c1)[C@@H]1CCCC[C@H]1NC3 (relative stereo) [Example 95, Trans-10-methyl-2,3,4,4a,5,6,7,11c-octahydro-1H-indolo[2,3c]quinoline, hydrochloride] |  |  |  | Ki (Human 5-HT2A): 3440 nM; Ki (Human 5-HT2B): 840 nM; Ki (5HT2C): 2640 nM |
| COc1cc2c(cc1OC)CC1(CC2)N[C@@H]2CCCC[C@H]2c2c1[nH]c1ccc(C)cc21 (stereo partly drawn) [Example 107, Trans-spiro-6,6-[2-(3,4-dimethoxy)-1,2,3,4-tetrahydronaphthyl]-10-methyl-2,3,4,4a,5,6,7,11a-octahydro-1H-indolo[2,3-c]quinidine, hydrochloride] |  |  |  | Ki (Human 5-HT2A): 363 nM; Ki (Human 5-HT2B): 178 nM; Ki (5HT2C): 325 nM |
| COc1ccc(C(C)C2NCCc3c2[nH]c2cc(C)c(C)cc32)cc1OC (racemic) [Example 41, (±) 6,7-dimethyl-1-[(3,4-dimethoxyphenyl)-1-ethyl]-1,2,3,4-tetrahydro-9H-pyrido[3,4-b]indole (Z)-2-butenedioate] | 11.5 nM | 7.2 | 0.155 nM | Ki (rat 5-HT2B receptor; read-out: pKi (converted)): 6.46 nM |
| COc1ccc(CC2NCCc3c2[nH]c2ccc(C)cc32)cc1OC (centres unmarked) [Example 20, 6-methyl-1,2,3,4-tetrahydro-1-[(3,4-dimethoxyphenyl)methyl]-9H-pyrido[3,4b]indole hydrochloride] | 61.7 nM | 7.8 |  |  |
| Cc1cc(Br)c2[nH]c3c(c2c1)CCNC3 [Example 73, 6-methyl-8-bromo-1,2,3,4-tetrahydro-9H-pyrido[3,4b]-indole] |  | 8.9 |  | pKi (rat 5-HT2B receptor): 7.85; ED50 (colon): 3.2 mg/kg |
| CCCOc1ccc(CC2NCCc3c2[nH]c2ccc(C)cc32)cc1OC (centres unmarked) [Example 31, 6-methyl-1-[(3-methoxy-4-propoxyphenyl)-methyl]-1,2,3,4-tetrahydro-9H-pyrido[3,4-b]indole] | 51.3 nM |  | 1.12 nM |  |
| Cc1ccc2[nH]c3c(c2c1)CCNC3Cc1cccc2ccccc12 (racemic) [Example 51, (±) 6-methyl-1-(1-naphthalenylmethyl)-1,2,3,4-tetrahydro-9H-pyrido [3,4-b]indole hydrochloride] | 8.51 nM |  | 0.178 nM |  |
| Cc1ccc2[nH]c3c(c2c1)[C@@H]1CCCC[C@H]1NC3Cc1cccc2ccccc12 (stereo partly drawn) [Example 105, Trans-10-methyl-6-(1-naphthylmethyl)-2,3,4,4a,5,6,7,11c-octahydro-1H-indolo[2,3-c]quinoline, hydrochloride] |  |  |  | Ki (Human 5-HT2A): 86.5 nM; Ki (Human 5-HT2B): 22.1 nM; Ki (5HT2C): 195 nM |
| COc1ccc(CC2NCCc3c2[nH]c2ccc(C)cc32)c(Cl)c1OC (centres unmarked) [Example 36, 6-methyl-1-[(2-chloro-3,4-dimethoxyphenyl)-methyl]-1,2,3,4-tetrahydro-9H-pyrido[3,4-b]indole hydrochloride] | 7.24 nM |  |  | Kb ([2]; read-out: 5-HT2B (Fundus) -log KB (converted)): 0.158 nM |
| COc1ccc(CC2NCCc3c2[nH]c2cc(C)c(C)cc32)cc1OC (centres unmarked) [Example 16, 6,7-dimethyl-1,2,3,4-tetrahydro-1-[(3,4-dimethoxyphenyl)methyl]-9H-pyrido[3,4b]indole] | 7.08 nM |  |  | Kb [2]: 0.195 nM |

— patent US5688807A, “Method for treating 5HT2B receptor related conditions” (Eli Lilly and Company, priority 1995, dated 1997)
